Tests used:
ERRγ [1] = target: T1, ERRγ (Homo sapiens, UniProt P62508); details: cited from earlier work
T1 sequence (P62508 1-458): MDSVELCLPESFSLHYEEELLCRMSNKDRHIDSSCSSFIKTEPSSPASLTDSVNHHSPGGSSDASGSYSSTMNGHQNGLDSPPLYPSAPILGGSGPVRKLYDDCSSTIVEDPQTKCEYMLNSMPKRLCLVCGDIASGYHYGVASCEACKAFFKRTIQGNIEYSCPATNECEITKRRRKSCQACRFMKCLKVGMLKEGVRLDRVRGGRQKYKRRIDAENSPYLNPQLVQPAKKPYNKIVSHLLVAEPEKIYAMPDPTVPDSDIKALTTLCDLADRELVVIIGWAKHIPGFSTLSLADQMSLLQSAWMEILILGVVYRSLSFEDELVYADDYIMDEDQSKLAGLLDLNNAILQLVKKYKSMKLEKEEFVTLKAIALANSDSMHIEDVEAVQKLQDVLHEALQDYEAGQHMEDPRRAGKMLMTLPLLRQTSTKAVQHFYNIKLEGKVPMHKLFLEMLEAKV

ERRα = target: T2, ERRα (Homo sapiens, UniProt P11474); details: for example in the presence of PGC-1a; cited from earlier work
T2 sequence (P11474 1-423): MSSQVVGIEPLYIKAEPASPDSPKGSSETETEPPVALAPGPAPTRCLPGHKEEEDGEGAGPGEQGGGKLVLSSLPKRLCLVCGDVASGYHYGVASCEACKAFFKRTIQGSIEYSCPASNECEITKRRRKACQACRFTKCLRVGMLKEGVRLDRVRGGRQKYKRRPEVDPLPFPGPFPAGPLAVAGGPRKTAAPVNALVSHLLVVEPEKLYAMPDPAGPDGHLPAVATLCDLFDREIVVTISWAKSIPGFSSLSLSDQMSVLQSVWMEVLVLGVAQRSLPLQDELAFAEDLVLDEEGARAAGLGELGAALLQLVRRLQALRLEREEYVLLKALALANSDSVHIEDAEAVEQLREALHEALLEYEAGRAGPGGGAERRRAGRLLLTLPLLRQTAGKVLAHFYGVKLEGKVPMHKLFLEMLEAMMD

ERRβ = target: T3, ERRβ (Homo sapiens, UniProt O95718); details: for example in the presence of PGC-1a; cited from earlier work
T3 sequence (O95718 1-433): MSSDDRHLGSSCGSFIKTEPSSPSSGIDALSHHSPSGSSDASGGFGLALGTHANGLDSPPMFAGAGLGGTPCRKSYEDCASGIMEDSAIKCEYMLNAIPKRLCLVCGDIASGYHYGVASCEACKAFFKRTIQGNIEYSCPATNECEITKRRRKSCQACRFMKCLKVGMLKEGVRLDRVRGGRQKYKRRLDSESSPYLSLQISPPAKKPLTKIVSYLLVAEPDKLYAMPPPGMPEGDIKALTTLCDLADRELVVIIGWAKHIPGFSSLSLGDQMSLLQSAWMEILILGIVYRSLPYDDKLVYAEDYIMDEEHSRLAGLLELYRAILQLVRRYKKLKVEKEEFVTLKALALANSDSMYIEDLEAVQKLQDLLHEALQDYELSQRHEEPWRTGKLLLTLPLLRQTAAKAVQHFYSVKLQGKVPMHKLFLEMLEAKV

ERRγ [2] = target: T1, ERRγ; details: for example in the presence of PGC-1a; cited from earlier work
[3] = tested on: control flox/flox (WT) and ERRγ ASKO (KO) mice; test: Oxygen consumption (VO2, CLAMS) after intraperitoneal injection of beta adrenergic agonist in mice; type: in vivo, mouse
Protocol: ERRγ flox/flox mice were crossed with adiponectin-Cre mice (Jackson Laboratory) to generate ERRγ-ASKO mice. ERRγ-ASKO mice and flox/flox control littermates received a standard chow diet (MI laboratory rodent diet 5001, Harlan Teklad) or high fat (60%) diet (F3282, Bio-Serv) and water ad libitum. All mice used for studies were male unless otherwise noted. Mice were housed at thermoneutrality (30° C.) unless otherwise indicated. PPARα null mice were purchased from Jackson laboratory.
Oxygen consumption (VO2) was measured using the Comprehensive Laboratory Animal Monitoring System (CLAMS; Columbus, Ohio). Data were normalized to body weights. Body temperatures were assessed using a RET-3 rectal probe for mice (Physitemp). CL316243 (Sigma) and norepinephrine were intraperitoneally injected into mice at 1 mg/kg body weight.

[4] = tested on: differentiated PAZ-6 brown adipocytes; test: Seahorse XF oxygen consumption assay in differentiated PAZ-6 brown adipocytes; type: cell-based, human
Protocol: PAZ-6 human brown adipocytes were differentiated as previously described (18). Human adipose derived stem cells were cultured as previously described.
Bioenergetic profiles were analyzed using a XF24XF analyzer (Seahorse Bioscience) and the XF Palmitate-BSA FAO Substrate (Seahorse Bioscience).

| Compound | activation of ERRα (ERRα) | activation of ERRβ (ERRβ) | activation of ERRγ (ERRγ [2]) | other results |
| --- | --- | --- | --- | --- |
| Nc1ccc(C(=O)N/N=C/c2ccc(/N=N/c3ccccc3)cc2)cn1 [E6] | – | – | – | selectivity for ERRγ over ERRα and β (ERRγ [1]): selective for ERRγ but not ERRα and β |
| O=C(NN=Cc1ccccc1)c1ccc(O)cc1 [DY162] | activate | activate | activate | – |
| Cc1cccc(C=NNC(=O)c2ccc(O)cc2)c1 [DY159] | activate | activate | activate | – |
| Cc1ccc(/C=N/NC(=O)c2ccc(O)cc2)cc1 [DY163] | activate | activate | activate | – |
| NC[C@H](O)c1ccc(O)c(O)c1 [NE, norepinephrine] | – | – | – | metabolic rate (VO2) response upon injection ([3]; ERRγ-ASKO mice at thermoneutrality, 1 mg/kg intraperitoneal): severely blunted; metabolic rate (oxygen consumption, VO2) upon injection ([3]; control flox/flox mice at thermoneutrality, 1 mg/kg intraperitoneal): increased |
| CC(C)c1ccc(/C=N/NC(=O)c2ccc(O)cc2)cc1 [GSK4716] | – | – | – | Increase in oxygen consumption rate in the presence or absence of palmitate ([4]; differentiated PAZ-6, 10 μM overnight, with vs without palmitate (FIG. 5M)): only occurred in the presence of fatty acids; proton leak or uncoupling ([4]; differentiated PAZ-6 treated overnight with 10 μM vs DMSO vehicle): higher; Oxygen consumption rate ([4]; differentiated PAZ-6 treated overnight with 10 μM vs DMSO vehicle, in the presence of fatty acids (palmitate)): higher |
| CCc1ccc(C=NNC(=O)c2ccc(O)cc2)s1 [DY164] | activate | activate | activate | – |
| C[C@H](Cc1ccc2c(c1)OC(C(=O)[O-])(C(=O)[O-])O2)NC[C@H](O)c1cccc(Cl)c1.[Na+].[Na+] [CL316243] | – | – | – | response (VO2, RER) to injection ([3]; ERRγ-ASKO female mice at thermoneutrality, 1 mg/kg BW intraperitoneal): blunted |

— US20180207114A1, “ESTROGEN RELATED RECEPTOR GAMMA (ERRgamma) ENHANCES AND MAINTAINS BROWN FAT THERMOGENIC CAPACITY” (Salk Institute for Biological Studies, priority 2015, published 2018)
